Test results taken from publication PMC9234671, “Molecular determinants of αVβ5 localization in flat clathrin lattices – role of αVβ5 in cell adhesion and proliferation” (Journal of Cell Science, 2022).

System: β5 Ser-759/762 phosphorylation
Experiment: Mass spectrometry of β5 immunoprecipitates: β5 phosphorylation
Format: cell-based, human
Text: Journal of Cell Science | Peer review history […]
opinion most interesting findings linked to the serine/threonine phosphorylation sites.
Response: We have now changed the t itle and abstract to better emphasize the interesting and novel findings (page 1 -2).
Reviewer 2 Comments for the author...
There are some points that the authors may want to consider: […]
only very limited binding to kindlin-1/2. Furthermore, the phosphomimetic β5-S759/762E mutant promotes localization in FCLs. In the BirA experiments, the authors detect no biotinylation of clathrin adaptors ARH and NUMB with the b5/b1 or b5/b1 chimeras, in contrast to the b5 wt. Is this also the case for clathrin or AP2-mu, established components of FCL?
Response: We thank the reviewer for his/her useful remark. […]
The peptide pull-downs in figure 2 are a little problematic given the high Bg binding of NUMB and ARH to the b1 scr peptide. […] In addition, quantifications from several biological repeats of the pulldowns might help t o establish the reproducibility and statistical significance of the differences indicated by the authors in the text. […]
Figure 3. […] Specifically, we assessed whether phosphorylation of […]
of β5 at S759 and S762 could be detected (discussed in the middle of page 13).
Figure 4. is there a reason for using talin rather than vinculin staining as a FA marker here? […] Could this be analysed and mentioned in the text? […]

## COC[C@@H]([C@H](O)[C@H](O)C(=O)NCC[C@H](C)c1nc(/C=C/C[C@@H]2O[C@]3(C[C@@H](O)[C@@H]2C)O[C@H]([C@H](C[C@H](O)[C@H](C)[C@H](O)[C@H](C)/C=C(C)/C(C)=C/C=C/C(C)=C\C#N)OC)[C@H](OP(=O)(O)O)C3(C)C)co1)N(C)C [calyculin A]
25 nM calyculin for 20 min, PA-JEB/β4 keratinocytes, anti-β5 immunoprecipitation, MS/MS
  detection of β5 phosphorylation at S759 and S762: no phosphorylation
Calyculin A-treated cells, mass spectrometry of β5 immunoprecipitates
  detection of β5 phosphorylation at Ser-759/762: unsuccessful
